We go through 9 molecules from US20260263401A1, “Topical composition and uses thereof” (UNIVERSIDADE DE COIMBRA, priority 2022, published 2026).

SMILES strings stand for the structures. Values joined by “and” are separate entries in the source; they are usually repeats but may differ in a detail not shown here. Identical values can stand only once. “Also recorded” adds a separate entry of the source.

One data set deals with THP-1 cells. Briefly: Maturation of THP-1 cells assessed by up-regulation of co-stimulatory molecules CD86 and CD54. The conditions noted are these: for levels of CD54 and CD86, allergen alone: 24 h, DNFB 8 μM, MI 100 μM; for CD54 and CD86 maturation levels, pre-incubation before allergen: pre-incubation (20 mM) before 24 h DNFB (8 μM) and MI (100 μM). As to the method: In an embodiment, the THP-1 cell line has been used as a dendritic cell (DC) surrogate for skin sensitizers hazard, following the OECD guidelines. […] The THP-1 cells are stabilized overnight at a density of 5×10^5 cells/mL. On the day after, cells are seeded in 12-well plates at a density of 8×10^5 cells/well and incubated for 24 h with medium (control), Dimethyl sulfoxide (DMSO) (allergens solvent) or with 20 mM of each inhibitor of ACD (NAC), (LYS) or mixture (NAC+LYS). In addition, sensitization is induced with the strong skin allergen 1-fluoro-2,4-dinitrobenzene (DNFB) (8 μM) or Methylisothiazolinone (MI) (100 μM) for 24 h. At the end of the incubation period, cells are washed with ice-cold PBS supplemented with 1% (v/v) inactivated FBS, centrifuged at 300×g for 5 min at 4° C. and pellets are dissolved in ice-cold PBS supplemented with 1% (v/v) inactivated FBS. Then, 100 µL of the cell suspension are incubated with, or without, 3 μL of anti-human CD54 antibody (#353111, Biolegend, San Diego, CA, USA) or anti-human CD86 (#305414, Biolegend, San Diego, CA, USA) antibody for 30 min at 4° C. […] A total of 1×10^4 living cells are considered for analysis. The CD86 and CD54 levels are analyzed by flow cytometry with the acquisition channels FL1 and FL4. Based on the geometric mean fluorescence intensity (MFI), the relative fluorescence intensity (RFI) of CD86 and CD54 for positive control cells and chemical-treated cells is calculated according to the following equation: […]

For another data set, the system named is BALB/c mice. The data set is described as follows: Murine local lymph node assay (BRDU-LLNA, flow cytometry). The conditions noted are these: for skin ulcerations, allergen alone (mice ears): topical on ears, days 1-3.
The test system of data set [1] is NRF2 dependent genes in HaCaT. The data set is described as follows: Expression of NRF2 dependent genes in keratinocytes (real time PCR). It counts as cell-based, human. The conditions noted are these: 6 h.
Protocol: HaCaT is cultured with Dulbecco's Modified Eagle's Medium (DMEM) (Sigma-Aldrich, St. Louis, MO, USA), supplemented with 10% (v/v) heat-inactivated fetal bovine serum (FBS), 1% (v/v) antibiotic solution (100 U/mL penicillin, 100 μg/mL streptomycin) (Gibco, Carlsbad, CA, USA), 3.7 g/L sodium bicarbonate and 1 mM sodium pyruvate (Sigma-Aldrich, St. Louis, MO, USA).
In an embodiment, HaCaT cells are seeded in 6-well plates at a density of 6×10^5 cells/well and allowed to adhere for 24 h. After that, cells are incubated for 24 h with exposure medium (control) or treated with 10 mM of NAC, 10 mM of LYS, 8 μM of DNFB, 100 μM of MI, or 10 mM+DNFB, 10 mM LYS+DNFB and 10 mM+MI, 10 mM LYS+MI for 6 h or 24 h.
In an embodiment, total RNA (ribonucleic acid) is extracted from HaCaT treated cells, as previously described by our group [37], with NZYol reagent, according to the manufacturer's instructions and its concentration is determined by OD260 measurement using a NanoDrop spectrophotometer (Thermo Scientific, Wilmington, DE, USA). Samples are stored in RNA Storage Solution at −80° C. until use. Total RNA (1 g) is reverse-transcribed using the iScript Select cDNA Synthesis Kit, and real-time reverse transcriptase-polymerase chain reaction (RT-PCR) reactions are performed, in duplicate for each sample, on a Bio-Rad MyCycler iQ5 (Hercules, CA, USA), as previously described by our group [38].
In an embodiment, after amplification, a threshold is set for each gene and Ct values are calculated for all samples. Gene expression changes are analyzed using Bio-Rad CFX Maestro 1.1 system software (Hercules, CA, USA). The results are normalized using Hprt-1 as the reference gene. Primer sequences are designed using Beacon Designer software version 7.7 (Premier Biosoft International, Palo Alto, CA, USA) and thoroughly tested.
In data set [2] the test system is SkinEthic™ Reconstructed Human Epidermis (RHE). Briefly: Skin irritation, SkinEthic Reconstructed Human Epidermis (RHE), MTT assay, OECD TG 439. It counts as cell-based. The conditions noted are these: 42 min exposure, 42 h post-incubation, three tissue replicates, relative to PBS control, <50% = irritant, sulfate. As to the method: In an embodiment, skin irritation is evaluated using the SkinEthic™ Reconstructed Human Epidermis (RHE) model (EPISKIN Laboratories, Lyon, France), in compliance with the OECD Test Guideline No. 439-In Vitro Skin Irritation: Reconstructed
Human Epidermis Test Method. The RHE model consists of a differentiated three-dimensional epi-dermal tissue of human keratinocytes grown on a 0.5 cm^2 surface inert polycarbonate filter in a chemically defined medium at the air-liquid interface. Two specific media provided by EPISKIN are used: maintenance and growth media. […] The experiment also includes other inserts treated with PBS or 5% (w/v in water) SDS used as negative and positive controls, respectively. […] Tissue viability is assessed using the MTT (3-(4,5-dimethylthiazol-2-yl)-2,5-diphenyl-2H-tetrazolium bromide) assay. For that, tissues are incubated with MTT (1 mg/mL) at 37° C. for 3h; then the MTT solution was removed, and formazan crystals were dissolved with isopropanol. The absorbance was measured at 570 nm using a SpectraMax Plus 384 Spectrophotometer. […] If the tissue viability value is <50%, the samples are classified as irritants.

The conditions of data set [3]: chelating agent; cited from earlier work.
The nature of data set [4]: Cysteine depletion protocol (glutathione in solution depletion). The conditions noted are these: FIG. 1A. As to the method: In an embodiment, Cysteine depletion Protocol-Glutathione in solution depletion protocol—“in house development protocol” was applied: • In a test tube, mix 10 μL of the 100 mM test chemical solution with 190 μL of GSH solution (20 μL of GSH 2 mM and 170 μL of PB) and Incubated at RT, protected from light, for 1 h in a tube roller (40 rpm) • […]; [test chemical]f=5 mM; [GSH]f=0.2 mM; • 20 μL of Ellman's reagent 10 mM, a thiol sensitive colorimetric reagent was added. Mix gently by tapping manually in the test tube and incubate for 10 min at RT, in a test tube rotator protected from light; • The absorbance was read in a microplate reader at 405 nm. • Note: For each assay, a fresh Glutathione stock of 50 mM (0.00768 g in 500 μL of PBS) and the second stock of 2 mM in PBS (2 μL of the […] solution+48 μl of PBS) were freshly prepared.
In an embodiment, Control and Test Chemical Preparation was applied: • DNFB is used as the positive control for the assay in every assay run. For the negative control LA is used and for the reference control three types of reference controls are included in each study: • Reference control A is made with the solvent DMSO, with incubation with Ellman's reagent and is used to calculate the maximum fluorescence or absorbance in the presence of CYS containing peptides. […]
Test Chemicals: In an embodiment, test chemicals were pre-weighted into 1.5 mL test tubes and dissolved in 1 mL of DMSO to prepare a 100 mM solution immediately before use. The weight of the test chemical to be added to the vial is determined based on the molecular weight and purity. […]
In an embodiment, for the data analysis, the percent depletion of peptide is determined by using the following formula: […]

The subject of data set [5] is Poly-L-Lysine Hydrobromide (PLL). The data set is described as follows: Lysine depletion protocol (in chemico reactivity towards lysine). The conditions noted are these: 20 mM molecule incubated 1 h with DNFB 5 mM; FIG. 1B. As to the method:
In an embodiment, a Lysine depletion Protocol—“in house development protocol” was applied, comprising: Dissolve 0.01 g of Poly-L-Lysine Hydrobromide (PLL) (Sigma, P1399) in 100 mL of purified water (use within 2 months). Filter the solution with a syringe filter to remove aggregates and store ate 4° C. for further use. For plate coating add 50 μL of PLL to each well of the 96 black bottom glass microplate (Corning ref 45806) and incubate for 2 hours at 37° C. or 24 h at room temperature.
In an embodiment, after the coating procedure, the contents of the plate were discarded into a sink and the plate is washed 3 times with 200 μL of PBS per well. Blot any residual PBS by firmly tapping the plate upside-down on absorbent paper. 20 mM of each potential ACD inhibitory molecule/mixture is added and incubated with 70 μl of the strong skin sensitizer 1-fluoro-2,4-dinitrobenzene (DNFB) (5 mM in DMSO) for 1h; the mixture was transferred to the plate and incubated for 24 h at 37° C. The contents of the plate were discarded and the wells were washed 3 times with PBS as previously reported. 70 μL of 10 μM Fluorescein-5-Ex-Succinimidyl Ester (FSE) were added and incubated for 1 h in the dark at 37° C. The contents of the plate were discarded; the wells were washed 3 times with PBS as previously stated. The fluorescence was read in a microplate reader (Exc 485±20 nm and Em 530±30 nm). Synergy™ HT plate reader (BioTek Instruments, Inc., Winooski, VT, USA): Bottom read with a sensibility of 50. […]
In an embodiment, Reference control A is made with the solvent DMSO, with incubation with FSE and is used to calculate the maximum fluorescence or absorbance in the presence of LYS. […]
In an embodiment, Test chemicals were pre-weighted into 1.5 mL test tubes and dissolved in 1 mL of DMSO to prepare a 100 mM solution immediately before use. The weight of the test chemical to be added to the vial was determined based on the molecular weight and purity. […]
In an embodiment, for the data Analysis the percentage of peptide depletion is determined by using the following formula: […]

Where [6] appears, read: incubated before DNFB, vs DNFB alone.
[7] abbreviates: incubated before MI, vs MI alone.

Protocol for BALB/c mice: In vivo validation of the efficacy of the hydrogel enriched with the best mixture of molecules, to avoid the development of skin sensitization using the murine local lymph node assay (LLNA)
This event can be confirmed using the in vivo test Local lymph node assay (LLNA), which is evaluated by flow cytometry (FCM) using the OECD Guideline for the testing of chemicals: BRDU (bromodeoxyuridine) ELISA (enzyme linked immunosorbent assay) or FCM 442B, as previously described and revised on OECD TG 442B [41].
During the entire procedure, the daily weight record is made to assess the welfare of the animals. […]
In an embodiment, on day 5, animals are intraperitoneally injected with 100 μl of BrdU mixture (20 mg/mL) in PBS. […] LNCs are stained with trypan blue (Sigma) and counted using a hemocytometer. LNCs (1.5×10^6 cells/mL) are prepared using a commercially FITC BrdU Flow Kit-Catalog No. 559619 (BD Biosciences, San Jose, CA, USA) and further analyzed by flow cytometry using a BD Accuri™ C6 Flow Cytometer (BD Biosciences, San Jose, CA, USA). Stimulation index (SI) values for each sample are calculated using the formula described in the OECD test guideline (TG 442B) [41].

With `O=[N+]([O-])c1ccc(F)c([N+](=O)[O-])c1` [DNFB, 1-fluoro-2,4-dinitrobenzene, reference compound], the “levels of CD54 and CD86, allergen alone” value in the data set with THP-1 cells is “significantly increases; also recorded: increase”. Also, in the data set with BALB/c mice (DNFB treated ears, FIG. 13B (gel 100 mM)), the “presence of eosinophils in the ears (histology)” value is given as “presence of eosinophils”. Moreover, the “skin ulcerations, allergen alone (mice ears)” value with BALB/c mice was “induce skin ulcerations”.
In the case of `O=C(O)C(S)C(S)C(=O)O` (stereo not shown) [DMSA, 2,3 dimercaptosuccinic acid], the “CD54 and CD86 maturation levels, pre-incubation before allergen” value (“CD54 and CD86 maturation levels” below) in the data set on THP-1 cells is “significantly decrease”.
Turning to `N[C@@H](CCS)C(=O)O` [HOMO, homocysteine], the “CD54 and CD86 maturation levels” value in the data set with THP-1 cells was “significantly decrease”. In data set [1] (setting [6]), the HMOX1 expression result is “significantly decrease” and the SOD1 expression entry is “significantly decrease”. The TRX1 expression result in data set [1] (setting [7]) is recorded as “significantly decrease”.
For the molecule `CCCCCCCCCCCCOS(=O)(=O)[O-].[Na+]` [SDS, sodium dodecyl sulfate], the “Tissue viability (%)” value was 1.41% and 1.44% and 1.62% in data set [2] (listed as SDS (5%)); “significantly decrease” in data set [2].
For `O=C(O)CN(CCN(CC(=O)O)CC(=O)O)CCN(CC(=O)O)CC(=O)O` [diethylenetriaminepentaacetic], the “prevention of nickel, chromium, and copper dermatitis” value in data set [3] is “can prevent”.
Regarding `N[C@@H](CCC(=O)N[C@@H](CS)C(=O)NCC(=O)O)C(=O)O` [GSH, Glutathione], the “CD54 and CD86 maturation levels” value in the data set on THP-1 cells was “significantly decrease”. Besides, in data set [1] (setting [6]), the HMOX1 expression result was “significantly decrease” and the SOD1 expression result is given as “significantly decrease”. The HMOX1 expression entry in data set [1] (setting [7]) is reported as “significantly decrease”.
For the molecule `CSCC[C@H](N)C(=O)O` [MET, methionine], in the data set with THP-1 cells, the “CD54 and CD86 maturation levels” value is recorded as “significantly decrease”. Moreover, in data set [1] (setting [7]), the GST expression entry is “significantly decrease” and the NQO1 expression entry was “significantly decrease”.
Consider `N[C@@H](CS)C(=O)O` [CYS, cysteine], for which the “CD54 and CD86 maturation levels” value with THP-1 cells is recorded as “significantly decrease”. For the same molecule, in data set [1] (setting [6]), the HMOX1 expression entry is recorded as “significantly decrease” and the TRX1 expression result is on record as “significantly decrease”. Besides, the “reactivity of the strong allergen DNFB towards cysteine (Glutathione depletion)” value in data set [4] was “significantly inhibit”. Also, the “reactivity of the strong allergen DNFB towards lysine (Lysine depletion)” value in data set [5] is “significantly inhibit”.
In the case of `Cn1sccc1=O` [MI, Methylisothiazolinone, reference compound], the “levels of CD54 and CD86, allergen alone” value in the data set with THP-1 cells is “significantly increases; also recorded: increase”. Also, the “skin ulcerations, allergen alone (mice ears)” value with BALB/c mice is on record as “induce skin ulcerations”.
